Test results from US7531195B2, “Schisandrin B preparation” (priority 2005, dated 2009).
Marks after values point to notes of the source that are not given here.

Key:
Myocardial Mitochondria = assay: Myocardial mitochondrial ATP generation capacity, young male and female rats; type: in vivo, rat; settings: 35 days
Method: (§1) Male/Female adult Sprague-Dawley rats (˜10 weeks old) were maintained under a 12-h dark/light cycle at about 22° C. and allowed food and water ad libitum. Animals were randomly divided into groups, with at least 5 animals in each. In the pretreatment groups, rats were treated intragastrically with (−) Schisandrin B at a daily dose of 1 or 10 mg/kg for 35 days. Control animals received oil only (10 ml/kg). Twenty-four hours following the last dosing, hearts were isolated from control or drug-pretreated rats and then subjected to Langendorff perfusion as described below.
Myocardial tissue samples were rinsed with ice-cold isotonic buffer (50 mM Tris, 0.32 M sucrose, 1 mM Na2EDTA, 0.2 mg/ml soybean trypsin inhibitor, 0.2 mg/ml bacitracine, 0.16 mg/ml benzamidine). Tissue homogenates were prepared by homogenizing 0.8 g of myocardial tissue in 8 ml ice-cold isotonic buffer and the homogenates were used for the preparation of mitochondrial fractions by differential centrifugation, as described in Chiu and Ko (2004). The mitochondrial pellets were resuspended in 1.5 ml of isotonic buffer containing 150 μl of 2 mg/ml soybean trypsin inhibitor and constituted the mitochondrial fractions.
Myocardial mitochondrial ATP generation capacity was measured by incubating 200 μl of nucleus-free tissue homogenate with 200 μl of substrate solution (containing 100 mM glutamate and 34 mM malate) and 20 μl ADP (2.3 mM) for 10 min at 37° C., and the ATP level were measured using an assay kit from Sigma Chemical Co. (St. Louis, Mo., USA). LDH activity was spectrophotometrically measured as described (Yim and Ko 1999).

[1] = tested on: Isolated-Perfused Rat Heart; assay: Myocardial ischemia-reperfusion injury (LDH leakage), isolated-perfused heart of young rats; type: in vivo; settings: 35 days
Method: as §1
(§2) The heart was excised quickly and immediately immersed in ice-cold and heparinized (50 unit/ml) saline. The aorta was cannulated and then transferred to a warm and moistured chamber of the perfusion apparatus. The heart was retrogradely perfused according to Langendorff method as described (Yim and Ko 1999).
(§3) Coronary effluent was collected in 1-min fractions at increasing time intervals during the course of equilibration and reperfusion. The fractions were immediately put on ice until assay for lactate dehydrogenase (LDH) activity. The extent of LDH leakage during the reperfusion period, an indirect index of myocardial injury, was estimated by computing the area under the curve of the graph plotting the percent LDH activity (with respect to the mean pre-ischemic value measured during the equilibration period) against the reperfusion time (1-20 min), as described (Yim and Ko 1999). Immediately after the I-R procedure, heart ventricular tissue samples were obtained for biochemical analysis.

[2] = tested on: Isolated-Perfused Rat Heart; assay: Myocardial ischemia-reperfusion injury (LDH leakage), isolated-perfused heart of old rats; type: in vivo; settings: liposome-encapsulated, 10 mg/kg daily, 35 days
Method: Aged male and female rats (˜12 months old) were administered with liposome-encapsulated (−) Schisandrin B in drinking water for 35 days, with the daily dose estimated to be 10 mg/kg.
Male/Female adult Sprague-Dawley rats (˜12 months old) were maintained under a 12-h dark/light cycle at about 22° C. and allowed food and water ad libitum. Animals were randomly divided into groups, with at least 5 animals in each. In the pretreatment groups, rats were treated with liposome-encapsulated (−) Schisandrin B in drinking water for 35 days, with the estimated daily dose of 10 mg/kg. Control animals received empty liposomes-containing drinking water. Twenty-four hours following the last dosing, hearts were isolated from control or drug-pretreated rats and then subjected to Langendorff perfusion as described below.
as §2
as §3, with “After an initial 30-min of perfusion for equilibration, the isolated heart was subjected to a 40-min period of ‘no-flow’ global ischemia followed by 20 min of reperfusion. Coronary” for “Coronary”

[3] = tested on: mitochondria of brain, heart, liver and skeletal muscle; assay: Mitochondrial antioxidant components in tissues of young adult and middle-aged rats; type: in vivo, rat; settings: 10 mg/kg/day x 15, range among tissues
Method: Young adult (8-10 week-old) and middle-aged (12-14 month-old retired breeder) female Sprague-Dawley rats were maintained under a 12-h dark/light cycle at about 22° C. and allowed food and water ad libitum. Experimental protocols were approved by the Research Practice Committee at the Hong Kong University of Science & Technology, Hong Kong. Animals were randomly divided into groups, with 5 animals in each. In the treatment groups, rats were intragastrically administered with Sch B (dissolved/suspended in olive oil) at a daily dose of 10 mg/kg for 15 days. The daily dose is approximated to 1.14 mg/kg for humans after adjusting the inter-species difference in drug distribution in the body. Untreated control animals received olive oil only. Twenty-four hours after the last dosing, animals were sacrificed by decapitation and the whole brain, heart ventricular, liver and skeletal muscle (hind limb) tissues were excised and subjected to biochemical analysis. To investigate the effect of (−) Sch B on myocardial ischemia-reperfusion […] injury, rats were intragastrically administered with (−) Sch B at a daily dose of 10 mg/kg for 35 days. Untreated control animals received olive oil only. Twenty-four hours after the last dosing, hearts were isolated from pentobarbital-anesthetized animals and subjected to I-R experiment.
Mitochondrial pellets were prepared from tissue homogenates by centrifugation at 800×g at 4° C. for 30 min, with purity being determined by measuring the relative specific activities of succinate dehydrogenase and lactate dehydrogenase (LDH) in the supernatant and mitochondrial pellet. Mitochondrial pellets were then resuspended in 1 ml of the respective homogenizing buffer used for various tissues and constituted the mitochondrial fractions. The protein concentration of mitochondrial fractions was determined using a Bio-Rad protein assay kit.
Aliquots (200 μl) of mitochondrial fractions were used for measuring mitochondrial glutathione (GSH) and α-tocopherol (α-TOC) levels by an enzymatic method and HPLC method, respectively, using GSH and α-TOC as standards. Se-glutathione peroxidase (GPX) activity was measured. Mn-superoxide dismutase (SOD) activity was measured by monitoring the […] of cytochrome c caused by superoxide radicals generated from the xanthine oxidase-xanthine reaction.

[4] = female rats, 1 mg/kg daily oral
[5] = female rats, 10 mg/kg daily oral

Which “ATP Generation, percent increase vs untreated control” value (“ATP Generation, percent increase” below) (Myocardial Mitochondria; [4]) does the source give for COc1cc2c(c(OC)c1OC)-c1c(cc3c(c1OC)OCO3)CC(C)C(C)C2 (single isomer, unassigned; (-)) [(−) Sch B, (−) Schisandrin B] here?
The value was “(26%)”.

And the “ATP generation” value (Myocardial Mitochondria; [4])?
The value was 4.11 ± 0.19^b μmol/min/mg protein.

What about the “ATP Generation, percent increase” value (Myocardial Mitochondria; [5]) of the same molecule?
Its value is “(78%)”.

What about the “ATP generation” value (Myocardial Mitochondria; [5]) of the same molecule?
The value was 5.79 ± 0.37^b μmol/min/mg protein.

What about the “ATP Generation, percent increase” value (Myocardial Mitochondria; male rats, 1 mg/kg daily oral) of the same molecule?
The value was “(99%)”.

What about the “ATP Generation, percent increase” value (Myocardial Mitochondria; male rats, 10 mg/kg daily oral) of the same molecule?
The value was “(141%)”.

What about the “ATP generation” value (Myocardial Mitochondria; male rats, 10 mg/kg daily oral) of the same molecule?
Its value is 6.74 ± 0.37^a μmol/min/mg protein.

What about the “LDH Leakage” value ([1]; I-R, female, 1 mg/kg daily) of the same molecule?
Its value is 2861 ± 70.6^b AU.

What about the “LDH Leakage, percent protection vs unpretreated control” value (“LDH Leakage, percent protection” below) ([1]; I-R, female, 1 mg/kg daily) of the same molecule?
The value was “(31%)”.

What about the “LDH Leakage” value ([1]; I-R, female, 10 mg/kg daily) of the same molecule?
Its value is 2023 ± 83.1^b AU.

And the “LDH Leakage, percent protection” value ([1]; I-R, female, 10 mg/kg daily)?
Its value is “(60%)”.

And the “LDH Leakage” value ([1]; I-R, male, 1 mg/kg daily)?
The value was 3638 ± 125^a AU.

And the “LDH Leakage, percent protection” value ([1]; I-R, male, 1 mg/kg daily)?
The value was “(37%)”.

What about the “LDH Leakage” value ([1]; I-R, male, 10 mg/kg daily) of the same molecule?
Its value is 2775 ± 55.8^a AU.

What about the “LDH Leakage, percent protection” value ([1]; I-R, male, 10 mg/kg daily) of the same molecule?
Its value is “(57%)”.

What about the “LDH Leakage” value ([1]; NON-I-R, female, 1 mg/kg daily) of the same molecule?
Its value is 776 ± 22.1 AU.

And the “LDH Leakage” value ([1]; NON-I-R, female, 10 mg/kg daily)?
Its value is 813 ± 14.0 AU.

And the “LDH Leakage” value ([1]; NON-I-R, male, 1 mg/kg daily)?
Its value is 804 ± 18.0 AU.

What about the “LDH Leakage” value ([1]; NON-I-R, male, 10 mg/kg daily) of the same molecule?
The value was 820 ± 13.8 AU.

What about the “LDH Leakage” value ([2]; I-R, old female) of the same molecule?
The value was 4534 ± 86.5^b AU.

What about the “LDH Leakage, percent protection” value ([2]; I-R, old female) of the same molecule?
The value was “(56%)”.

And the “LDH Leakage” value ([2]; I-R, old male)?
Its value is 2426 ± 219^a AU.

And the “LDH Leakage, percent protection” value ([2]; I-R, old male)?
Its value is “(62%)”.

And the “LDH Leakage” value ([2]; NON-I-R, old female)?
Its value is 611 ± 49.7 AU.

And the “LDH Leakage” value ([2]; NON-I-R, old male)?
The value was 570 ± 66.8 AU.

And the “extent of stimulation of mitochondrial GPX activity” value [3]?
Its value is 21-41%.

What about the “extent of stimulation of mitochondrial GSH level” value [3] of the same molecule?
The value was 21-29%.

And the “extent of stimulation of mitochondrial SOD activity” value [3]?
Its value is 19-34%.

And the “extent of stimulation of mitochondrial α-TOC level” value [3]?
The value was 19-34%.
